Reference: US20220040255A1, “CHEMOTHERAPEUTIC REMODELING OF THE GUT MICROBIOME” (THE SCRIPPS RESEARCH INSTITUTE, priority 2018, published 2022)
Where a SMILES comes first, the peptide text is derived from it. [ ]: non-standard residue; d: D form.

Key:
[1] = Pharmacokinetics of c[wLwReQeR] via different routes of administration; format: in vivo, mice
Procedure: Pharmacokinetics. These experiments were carried out in part courtesy of Carol S. Ryan, Debra J. Search, Ricardo A. Garcia, and David A. Gordon at Bristol Myers Squibb (Hopewell, N.J., USA). Male Balb/C or C57BL/6 mice (20 g) were maintained on a chow diet. The cyclic peptide c[wLwReQeR] (SEQ ID NO:11) was dissolved in PBS containing 1% sucrose or 95% 50 mM acetate buffer containing 10% sucrose, 5% DMSO (pH=4), and sterile filtered through a 0.22-μm syringe filter before injection. Mice were fasted beginning 12 h before dosing, and continued the fast until after the 8-h time point blood draw was completed. Groups of three mice received a dose of the cyclic peptide via […] (5 mL/kg for subcutaneous and intraperitoneal, 10 mL/kg for oral gavage). Blood was drawn (30-60 μL) from the retro-orbital sinus into a heparinized capillary tube before dosing (0 min) and at different intervals from 30 min to 8 h after dosing. Plasma was isolated immediately from the whole blood by centrifugation at 5,000 rpm for 10 min at 4° C. Immediately after the plasma was isolated, 20 μL of plasma was acidified with 20 μL of 5% TFA to break peptide-protein interactions, and 40 μL of acetonitrile was then added. After vortexing for 30 s, the mixture was centrifuged at 13,000 rpm for 10 min at 4° C. The resultant supernatant was analyzed by using LC-MS SIM as described below.
LC-MS SIM quantitation of peptide concentration. Cyclic peptide concentrations were quantified by using reverse-phase HPLC coupled with mass spectrometry. The electrospray ionization mass spectrometry measurements were carried out in the positive ionization mode using a single quadrupole mass spectrometer (Hewlett Packard HP 1100 MSD series). 10 or 20 μL of sample were injected through a C8 reverse-phase column (Zorbax 300-SB, 4.6 mm×150 mm, 5 μm) using a flow rate of 1.5 mL/min and binary gradients of solvent A (99% H2O, 0.1% formic acid, 0.01% TFA) and solvent B (99% acetonitrile, 0.1% formic acid, 0.01% TFA). Mass detection was carried out in the selected ion monitoring (SIM) mode for the positive molecular ion, with the optimized fragmentor and capillary voltages of 180 V and 5 kV, respectively. The selected monitoring mass for cyclic peptide c[wLwReQeR] (SEQ ID NO:11) was 592.8 ([M+2H]^2+). For quantitative calibration, standard curves were established using mouse EDTA-anticoagulated plasma spiked with various concentrations of the peptide. The calibration curve was established by using linear fitting of the data, with correlation coefficient ≥0.98.

[2] = tested on: bile acids; assay: bile acids in feces and plasma by targeted metabolomics; format: in vivo; details: WD-fed LDLr−/− mice, 2-wk treatment
Procedure: Measurement of secondary bile acids. Feces were obtained between 0900-1100 am from non-fasted animals after a 2-wk treatment period. Bile acids were extracted from samples according to published procedures (Wegner et al., Anal. Bioanal. Chem. 409, 1231-1245, 2017). Briefly, fecal samples were lyophilized and homogenized. Five milligrams of fecal powder were extracted with 250 μl of methanol containing heavy internal standards. Fifty microliters of plasma were extracted with 150 μL of methanol containing heavy internal standards. After vortexing for 10 minutes and centrifuging (16,000×g, 4 C, 10 min), supernatants were transferred to glass vials for injection and analysis by LCMS. Bile acids were analyzed on a Dionex Ultimate 3000 LC system (Thermo) coupled to a TSQ Quantiva mass spectrometer (Thermo) fitted with a Kinetex C18 reversed phase column (2.6 μm, 150×2.1 mm i.d., Phenomenex). The following LC solvents were used: solution A, 0.1% formic acid and 20 mM ammonium acetate in water, solution B, acetonitrile/methanol (3/1, v/v) containing 0.1% formic acid and 20 mM ammonium acetate. The following reversed phase gradient was utilized: at a flow rate of 0.2 mL/min with a gradient consisting of 25-29% B in 1 min, 29-33% B in 14 min, 33-70% B in 15 min, up to 100% B in 1 min, 100% B for 9 min and re-equilibrated to 25% B for 10 min, for a total run time of 50 min. The injection volume for all samples was 10 μL, the column oven temperature was set to 50° C. and the autosampler kept at 4° C. MS analyses were performed using electrospray ionization in positive and negative ion modes, with spray voltages of 3.5 and −3 kV, respectively, ion transfer tube temperature of 325° C., and vaporizer temperature of 275° C. Multiple reaction monitoring (MRM) was performed by using mass transitions between specific parent ions into corresponding fragment ions for each analyte.

In the case of CC(C)C[C@@H]1NC(=O)[C@@H](Cc2c[nH]c3ccccc23)NC(=O)[C@H](CCCNC(=N)N)NC(=O)[C@@H](CCC(=O)O)NC(=O)[C@H](CCC(N)=O)NC(=O)[C@@H](CCC(=O)O)NC(=O)[C@H](CCCNC(=N)N)NC(=O)[C@@H](Cc2c[nH]c3ccccc23)NC1=O [c[wLwReQeR]] (cyclo([dW]L[dW]R[dE]Q[dE]R)), the Tmax ([1]; male, C57BL/6, mouse, plasma, oral gavage, 15 mg/kg, C57B1/6) was under 3 h, the AUC(0-t) ([1]; male, C57BL/6, mouse, plasma, oral gavage, 15 mg/kg, C57B1/6, read-out: AUC 0-24 h) was under 3 nM·h and the Cmax ([1]; male, mouse, plasma, ip, 16-mg/kg i.p., BALB/c mice, read-out: peak plasma concentration) was 13 µM. For the same compound, the “peptide in plasma after oral gavage” value ([1]; oral gavage, limit of detection=3 nM) was “not detectable”, the CA level ([2]; feces) was 440 ± 490 pmol/mg feces and the DCA level ([2]; feces) was 4900 ± 2400 pmol/mg feces. The HCA level ([2]; feces) was 1.6 ± 1.1 pmol/mg feces, the LCA level ([2]; feces) was 400 ± 170 pmol/mg feces and the T-CA level ([2]; feces) was 8.3 ± 3.3 pmol/mg feces. The T-DCA level ([2]; feces) was 2.6 ± 1.2 pmol/mg feces, the T-HCA level ([2]; feces) was 0.097 ± 0.03 pmol/mg feces and the T-α-MCA level ([2]; feces) was 17 ± 8.7 pmol/mg feces. It also gave a T-β-MCA level ([2]; feces) of 20 ± 11 pmol/mg feces, a T-ω-MCA level ([2]; feces) of 3 ± 1.4 pmol/mg feces and a UDCA level ([2]; feces) of 43 ± 16 pmol/mg feces. It also gave a α-MCA level ([2]; feces) of 21 ± 8.9 pmol/mg feces, a β-MCA level ([2]; feces) of 65 ± 12 pmol/mg feces and a ω-MCA level ([2]; feces) of 170 ± 100 pmol/mg feces. It also gave a CA level ([2]; plasma) of 6300 ± 8300 pmol/mL plasma, a DCA level ([2]; plasma) of 2100 ± 2100 pmol/mL plasma and an HCA level ([2]; plasma) of 1.0 ± 0.84 pmol/mL plasma. For the same compound, the LCA level ([2]; plasma) was 100 ± 48 pmol/mL plasma, the T-CA level ([2]; plasma) was 16000 ± 31000 pmol/mL plasma and the T-DCA level ([2]; plasma) was 830 ± 1100 pmol/mL plasma. It also gave a T-HCA level ([2]; plasma) of 62 ± 110 pmol/mL plasma, a T-α-MCA level ([2]; plasma) of 1900 ± 3900 pmol/mL plasma and a T-β-MCA level ([2]; plasma) of 9800 ± 22000 pmol/mL plasma. For the same compound, the T-ω-MCA level ([2]; plasma) was 2400 ± 4900 pmol/mL plasma, the UDCA level ([2]; plasma) was 120 ± 92 pmol/mL plasma and the α-MCA level ([2]; plasma) was 10 ± 5.8 pmol/mL plasma. The β-MCA level ([2]; plasma) was 76 ± 75 pmol/mL plasma and the ω-MCA level ([2]; plasma) was 33 ± 11 pmol/mL plasma.
